pIC50: −log10 of the molar value.
Columns and labels:
Nitric oxide synthase 1 = Nitric oxide synthase 1 (Homo sapiens, UniProt P29475); assay: Inhibitory activity against neuronal nitric oxide synthase in human
Nitric oxide synthase 3 = target: T1, Nitric oxide synthase 3 (Homo sapiens, UniProt P29474); assay: Inhibitory activity against endothelial nitric oxide synthase in human
T1 sequence (P29474 whole entry): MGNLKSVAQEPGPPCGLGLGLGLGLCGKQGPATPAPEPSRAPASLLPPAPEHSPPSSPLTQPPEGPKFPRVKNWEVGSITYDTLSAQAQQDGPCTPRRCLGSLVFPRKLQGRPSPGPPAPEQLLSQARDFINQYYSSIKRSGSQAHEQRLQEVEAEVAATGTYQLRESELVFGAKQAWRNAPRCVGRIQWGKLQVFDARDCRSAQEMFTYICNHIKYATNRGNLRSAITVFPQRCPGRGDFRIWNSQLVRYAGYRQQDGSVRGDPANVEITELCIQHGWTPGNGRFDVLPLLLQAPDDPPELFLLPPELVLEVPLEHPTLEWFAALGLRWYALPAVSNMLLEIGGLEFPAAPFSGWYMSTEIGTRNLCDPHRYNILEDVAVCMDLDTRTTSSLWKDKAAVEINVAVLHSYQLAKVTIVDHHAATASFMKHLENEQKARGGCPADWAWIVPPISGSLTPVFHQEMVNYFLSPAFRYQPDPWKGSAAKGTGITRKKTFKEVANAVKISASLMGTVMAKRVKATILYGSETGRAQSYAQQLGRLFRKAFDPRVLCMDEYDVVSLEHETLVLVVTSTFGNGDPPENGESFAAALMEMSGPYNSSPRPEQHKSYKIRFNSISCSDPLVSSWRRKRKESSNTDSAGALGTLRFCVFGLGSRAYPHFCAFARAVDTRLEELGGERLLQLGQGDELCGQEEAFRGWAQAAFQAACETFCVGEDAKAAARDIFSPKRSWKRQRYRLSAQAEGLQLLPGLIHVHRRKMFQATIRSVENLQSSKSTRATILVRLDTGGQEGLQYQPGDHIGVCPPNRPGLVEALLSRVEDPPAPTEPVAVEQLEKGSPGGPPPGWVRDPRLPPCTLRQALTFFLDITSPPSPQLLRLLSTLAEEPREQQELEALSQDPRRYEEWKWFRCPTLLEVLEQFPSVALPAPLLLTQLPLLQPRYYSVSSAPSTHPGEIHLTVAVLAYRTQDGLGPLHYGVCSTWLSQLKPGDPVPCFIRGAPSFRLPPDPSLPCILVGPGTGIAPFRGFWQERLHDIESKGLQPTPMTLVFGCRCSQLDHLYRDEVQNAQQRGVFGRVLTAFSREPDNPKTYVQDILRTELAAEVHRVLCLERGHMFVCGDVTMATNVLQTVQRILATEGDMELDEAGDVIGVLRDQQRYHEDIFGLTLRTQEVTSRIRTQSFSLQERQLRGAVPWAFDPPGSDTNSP

Sequence of Nitric oxide synthase 1 (P29475 whole entry): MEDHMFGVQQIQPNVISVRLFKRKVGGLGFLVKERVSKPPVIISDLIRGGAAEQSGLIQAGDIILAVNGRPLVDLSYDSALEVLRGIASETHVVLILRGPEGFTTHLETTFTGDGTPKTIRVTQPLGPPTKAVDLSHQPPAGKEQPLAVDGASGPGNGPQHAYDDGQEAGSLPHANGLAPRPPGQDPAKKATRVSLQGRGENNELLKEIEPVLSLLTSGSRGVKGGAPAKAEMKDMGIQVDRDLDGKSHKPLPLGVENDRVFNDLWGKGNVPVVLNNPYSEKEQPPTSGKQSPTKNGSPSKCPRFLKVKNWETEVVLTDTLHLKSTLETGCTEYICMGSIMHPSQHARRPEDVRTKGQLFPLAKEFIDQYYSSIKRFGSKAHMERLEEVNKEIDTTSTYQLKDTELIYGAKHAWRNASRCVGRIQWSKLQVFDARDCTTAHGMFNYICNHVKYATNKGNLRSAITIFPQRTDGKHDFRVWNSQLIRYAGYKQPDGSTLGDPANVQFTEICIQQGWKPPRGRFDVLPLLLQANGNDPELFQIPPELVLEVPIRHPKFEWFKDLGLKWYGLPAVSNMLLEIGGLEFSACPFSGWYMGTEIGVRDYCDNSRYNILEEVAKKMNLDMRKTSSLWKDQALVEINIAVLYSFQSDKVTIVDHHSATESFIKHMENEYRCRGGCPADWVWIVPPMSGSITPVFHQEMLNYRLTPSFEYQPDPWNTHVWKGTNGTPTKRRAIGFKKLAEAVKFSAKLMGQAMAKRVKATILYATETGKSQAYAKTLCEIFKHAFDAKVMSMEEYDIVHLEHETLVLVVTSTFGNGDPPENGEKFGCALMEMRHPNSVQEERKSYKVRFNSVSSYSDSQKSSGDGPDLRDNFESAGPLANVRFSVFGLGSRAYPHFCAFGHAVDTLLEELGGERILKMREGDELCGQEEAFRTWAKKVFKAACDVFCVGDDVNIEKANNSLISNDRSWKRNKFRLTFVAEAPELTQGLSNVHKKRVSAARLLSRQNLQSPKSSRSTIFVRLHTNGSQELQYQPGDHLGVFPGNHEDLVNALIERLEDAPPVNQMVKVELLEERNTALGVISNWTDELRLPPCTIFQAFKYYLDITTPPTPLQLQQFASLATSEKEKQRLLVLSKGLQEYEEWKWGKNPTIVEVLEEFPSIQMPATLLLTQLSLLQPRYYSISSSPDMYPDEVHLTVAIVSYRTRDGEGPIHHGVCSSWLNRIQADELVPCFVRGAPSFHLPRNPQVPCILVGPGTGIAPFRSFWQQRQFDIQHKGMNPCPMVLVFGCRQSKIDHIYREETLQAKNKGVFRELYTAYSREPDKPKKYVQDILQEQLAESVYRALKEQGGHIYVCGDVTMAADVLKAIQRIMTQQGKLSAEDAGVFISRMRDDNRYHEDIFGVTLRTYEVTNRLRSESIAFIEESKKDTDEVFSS

CCc1cc(-c2cccc(N)n2)c(OC)cc1OCCN(C)C
pIC50 (Nitric oxide synthase 1): 7.24 | pIC50 (Nitric oxide synthase 3): 5.43

COc1cc(-c2cccc(N)n2)c(OC)cc1CCN(C)C
pIC50 (Nitric oxide synthase 1): 6.63 | pIC50 (Nitric oxide synthase 3): < 4.49

COc1cc(-c2cccc(N)n2)c(OC)cc1CCCN(C)C
pIC50 (Nitric oxide synthase 1): 6.70 | pIC50 (Nitric oxide synthase 3): < 4.49

COc1cc(-c2cccc(N)n2)c(OC)cc1OCCN(C)C
pIC50 (Nitric oxide synthase 1): 6.95 | pIC50 (Nitric oxide synthase 3): 4.66

CCc1cc(-c2cccc(N)n2)c(OC)cc1CCCN(C)C
pIC50 (Nitric oxide synthase 1): 7.12 | pIC50 (Nitric oxide synthase 3): < 5.11

COc1cc(-c2cccc(N)n2)c(OC)cc1CN(C)C
pIC50 (Nitric oxide synthase 1): 6.09 | pIC50 (Nitric oxide synthase 3): < 4.49

CCc1cc(-c2cccc(N)n2)c(OC)cc1CCN(C)C
pIC50 (Nitric oxide synthase 1): 7.12 | pIC50 (Nitric oxide synthase 3): 4.78

CCc1cc(-c2cccc(N)n2)c(OC)cc1CN(C)C
pIC50 (Nitric oxide synthase 3): 5.05

Reference: ChEMBL document CHEMBL1137188, “Substituted 6-phenyl-pyridin-2-ylamines: selective and potent inhibitors of neuronal nitric oxide synthase” (Bioorg Med Chem Lett, 2004)
